IC50 data for 28 molecules are collected here from patent US6608082B1, “Treatment of erectile dysfunction using isoquinoline compound melanocortin receptor ligands” (Lion Bioscience AG, priority 1998, dated 2003).

The target in the experiment is T1, MCR-1 (Homo sapiens, UniProt Q01726).
T1 construct: expressed in transfected cells; host or cells: HEK 293
T1 sequence (Q01726 whole entry): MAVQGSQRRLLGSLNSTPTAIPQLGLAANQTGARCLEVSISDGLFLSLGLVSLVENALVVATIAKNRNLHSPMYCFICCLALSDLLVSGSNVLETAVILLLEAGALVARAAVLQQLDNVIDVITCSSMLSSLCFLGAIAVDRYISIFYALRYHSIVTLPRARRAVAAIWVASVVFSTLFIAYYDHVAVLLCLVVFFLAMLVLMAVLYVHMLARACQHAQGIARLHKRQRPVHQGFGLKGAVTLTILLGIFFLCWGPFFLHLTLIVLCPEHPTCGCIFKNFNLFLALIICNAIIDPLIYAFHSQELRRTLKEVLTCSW
The experiment can be described thus: Melanocortin receptor binding assay, competition with 125I-HP 467, HEK 293 cells expressing hMCR-1. Particulars: inhibition of binding of 125I-HP 467, HEK 293 cells expressing MCR-1; read-out: MC-1 IC50. A digest of the protocol: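 Test compounds compete on intact HEK 293 cells carrying hMCR-1 (2×10^4 per tube) or hMCR-4 (4×10^3 per tube), suspended in PBS, 10% calf serum, 1 mM CaCl2.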
`CCNc1ccc(C2C(CNC3CCCCC3)c3ccccc3CN2CCCC(CN)NCc2ccc(OC)cc2)cc1` (stereo not shown) [TRG 2411-171]: the IC50 (commonly the concentration that gives 50% inhibition) came to 150 nM. Take `CCNc1ccc(C2C(CNC3CCCCC3)c3ccccc3CN2CCCC(CN)NCCc2ccc3ccccc3c2)cc1` (stereo not shown) [TRG 2411-172]: the IC50 stood at 220 nM.

On to `CCNc1ccc(C2C(CN)c3ccccc3CN2CCCC(CN)NC)cc1` (stereo not shown) [TRG 2411-175], for which the IC50 came out at 290 nM. As to `CCCCNC(CN)CCCN1Cc2ccccc2C(CN)C1c1ccc(NCC)cc1` (stereo not shown) [TRG 2411-177], the IC50 turned out to be 110 nM.

Turning to `CCNc1ccc(C2C(CN)c3ccccc3CN2CCCC(CN)NCCc2ccc(OC)cc2)cc1` (stereo not shown) [TRG 2411-181], the IC50 was determined as 110 nM. The same measure for `CCNc1ccc(C2C(CN)c3ccccc3CN2CCCC(CN)NCc2ccccc2)cc1` (stereo not shown) [TRG 2411-182]: 200 nM.

With `CCNc1ccc(C2C(CN)c3ccccc3CN2CCCC(CN)NCc2ccc(Cl)cc2)cc1` (stereo not shown) [TRG 2411-183], the IC50 stood at 130 nM. As for `CCNc1ccc(C2C(CN)c3ccccc3CN2CCCC(CN)NCCN)cc1` (stereo not shown) [TRG 2411-187], the figure is 60 nM; as for `CCCCNc1ccc(C2C(CNCCc3ccccc3)c3ccccc3CN2CCCC(N)CN)cc1` (stereo not shown) [TRG 2411-188], 130 nM; as for `CCCCNc1ccc(C2C(CNCCc3ccccc3)c3ccccc3CN2CCCC(CN)NC)cc1` (stereo not shown) [TRG 2411-189], 120 nM.

Consider `CCCCNc1ccc(C2C(CNCCc3ccccc3)c3ccccc3CN2CCCC(CN)NCc2ccc(Cl)cc2)cc1` (stereo not shown) [TRG 2411-197], for which the IC50 is 80 nM. As for `CCCCNc1ccc(C2C(CNCCc3ccccc3)c3ccccc3CN2CCCC(CN)NCc2ccc(OC)cc2)cc1` (stereo not shown) [TRG 2411-198], the figure is 120 nM. The same measure for `CCCCNc1ccc(C2C(CNCCc3ccccc3)c3ccccc3CN2CCCC(CN)NCCc2ccc3ccccc3c2)cc1` (stereo not shown) [TRG 2411-199]: 170 nM. As for `CCCCNc1ccc(C2C(CNCCc3ccccc3)c3ccccc3CN2CCCC(CN)NCCN)cc1` (stereo not shown) [TRG 2411-201], the figure is 300 nM. With `CCCCNc1ccc(C2C(CNC3CCCCC3)c3ccccc3CN2CCCC(N)CN)cc1` (stereo not shown) [TRG 2411-202], the IC50 worked out at 220 nM.

For `CCCCNc1ccc(C2C(CNC3CCCCC3)c3ccccc3CN2CCC[C@@H](CN)NC)cc1` (stereo partly shown) [TRG 2411-203], the IC50 came to 170 nM. As for `CCCCNc1ccc(C2C(CNC3CCCCC3)c3ccccc3CN2CCCC(CN)NCC)cc1` (stereo not shown) [TRG 2411-204], the figure is 150 nM; as for `CCCCNc1ccc(C2C(CNC3CCCCC3)c3ccccc3CN2CCCC(CN)NCCCC)cc1` (stereo not shown) [TRG 2411-205], 250 nM; as for `CCCCNc1ccc(C2C(CNC3CCCCC3)c3ccccc3CN2CCCC(CN)NCCc2ccccc2)cc1` (stereo not shown) [TRG 2411-207], 190 nM. As for `CCCCNc1ccc(C2C(CNC3CCCCC3)c3ccccc3CN2CCCC(CN)NCc2ccc(Cl)cc2)cc1` (stereo not shown) [TRG 2411-211], the figure is 100 nM; as for `CCCCNc1ccc(C2C(CNC3CCCCC3)c3ccccc3CN2CCCC(CN)NCCC2CCCCC2)cc1` (stereo not shown) [TRG 2411-214], 80 nM. The same measure for `CCCCNc1ccc(C2C(CN)c3ccccc3CN2CCCC(N)CN)cc1` (stereo not shown) [TRG 2411-216]: 110 nM; for `CCCCNc1ccc(C2C(CN)c3ccccc3CN2CCCC(CN)NC)cc1` (stereo not shown) [TRG 2411-217]: 90 nM. `CCCCCNc1ccc(C2C(CNCCc3ccccc3)c3ccccc3CN2CCCCC(CN)NC)cc1` (stereo not shown) [TRG 2412-1]: the IC50 amounted to 380 nM. Regarding `CCCCCNc1ccc(C2C(CNCCc3ccccc3)c3ccccc3CN2CCCCC(CN)NCCc2ccccc2)cc1` (stereo not shown) [TRG 2412-2], the IC50 was 470 nM. Consider `CCCCCNc1ccc(C2C(CNCCc3ccccc3)c3ccccc3CN2CCCCC(CN)NCc2ccccc2)cc1` (stereo not shown) [TRG 2412-3], for which the IC50 was found to be 360 nM. On to `CCOc1ccc(C2C(CNCCc3ccccc3)c3ccccc3CN2CCCCC(CN)NCCc2ccccc2)cc1` (stereo not shown) [TRG 2412-5], for which the IC50 is 490 nM. The same measure for `CCOc1ccc(C2C(CNCCc3ccccc3)c3ccccc3CN2CCCCC(CN)NCc2ccccc2)cc1` (stereo not shown) [TRG 2412-6]: 590 nM.
